pIC50: −log10 of the molar value. Positions of bridges follow the written chain, without caps; N, C: chain ends. Non-standard residues stand in square brackets, D forms with d. Residues, ends and D or L forms follow the SMILES beside them. ξ: configuration not given here. *: point of attachment. Bip = N[C@@H](Cc1ccc(-c2ccccc2)cc1)C(=O)O; 1Nal = N[C@@H](Cc1cccc2ccccc12)C(=O)O; Ala(cPent) = N[C@@H](CC1CCCC1)C(=O)O; NMeF = CN[C@@H](Cc1ccccc1)C(=O)O; dDab = NCC[C@@H](N)C(=O)O; ξR = N=C(N)NCCCC(N)C(=O)O; Carboxymethyl = O=C(O)C*; NMeA = CN[C@@H](C)C(=O)O; Nle = CCCC[C@H](N)C(=O)O; Orn = NCCC[C@H](N)C(=O)O; dNMeA = CN[C@H](C)C(=O)O; Dab = NCC[C@H](N)C(=O)O; Dap = NC[C@H](N)C(=O)O; ξP = O=C(O)C1CCCN1; Sar = CNCC(=O)O
The molecules below were run against T1, human PD-1 (Jurkat-PD-1 cells) / PE-labeled human PD-L1-Ig (Homo sapiens, UniProt Q15116) (assay: Jurkat-PD-1 Cell Binding High-Content Screening Assay (CBA); Jurkat hPD1-PDL1 assay). Conditions: Jurkat cell line over-expressing human PD-1; PE-labeled PD-L1-Ig 20 nM final; compound incubated 2 hours at 37° C.; read-out: Jurkat HPD1-PDL1 IC50.
T1 construct: expressed in transfected cells; host or cells: Jurkat cell line over-expressing human PD-1
T1 sequence (Q15116 25-288): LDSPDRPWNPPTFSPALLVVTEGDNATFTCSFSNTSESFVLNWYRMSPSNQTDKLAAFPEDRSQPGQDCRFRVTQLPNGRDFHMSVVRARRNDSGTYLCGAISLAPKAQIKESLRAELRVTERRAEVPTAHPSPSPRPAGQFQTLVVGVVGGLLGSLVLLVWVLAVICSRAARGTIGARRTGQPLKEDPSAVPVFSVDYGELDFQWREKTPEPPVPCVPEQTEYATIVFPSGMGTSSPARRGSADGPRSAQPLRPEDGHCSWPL
Summary of the method: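 Jurkat cells overexpressing human PD-1 (8×10^3 per well, DMEM with 10% FCS) were preincubated with compound for 2 hours at 37° C. PE-labeled human PD-L1-Ig was then added at 20 nM final. Binding was quantified by high-content imaging.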
In the case of `CCCC[C@@H]1NC(=O)[C@H](CC(N)=O)NC(=O)[C@H]2CCCN2C(=O)[C@H](C)N(C)C(=O)[C@H](C(C)C)NC(=O)[C@H](Cc2ccc(-c3ccccc3)cc2)NC(=O)[C@H](CC(C)C)NC(=O)[C@H](Cc2c[nH]c3ccccc23)NC(=O)[C@H](CC(=O)O)NC(=O)[C@H](Cc2ccc(O)cc2)NC(=O)[C@H](Cc2ccccc2)NC(=O)CSC[C@@H](C(=O)N[C@@H](C)C(N)=O)NC(=O)[C@H]([C@@H](C)O)NC(=O)[C@H](CCCNC(=N)N)NC1=O` [Example 1121] ({CH2CO}-FYDWL[Bip]V[NMeA][dP]N[Nle]RTCA-NH2; thioether N-14), the pIC50 was 6.37.
For `CC(C)C[C@@H]1NC(=O)[C@H](Cc2c[nH]c3ccccc23)NC(=O)[C@H](CC(=O)O)NC(=O)[C@H](Cc2ccc(O)cc2)NC(=O)[C@H](Cc2ccccc2)NC(=O)CSC[C@@H](C(=O)NCC(N)=O)NC(=O)[C@H](CO)NC(=O)[C@H](C(C)C)NC(=O)[C@H](CC(C)C)NC(=O)[C@H](CC(N)=O)NC(=O)[C@@H](C)N(C)C(=O)[C@H](C)N(C)C(=O)[C@H](C(C)C)NC(=O)[C@H](Cc2ccc(-c3ccccc3)cc2)NC1=O` [Example 1082] ({CH2CO}-FYDWL[Bip]V[NMeA][dNMeA]NLVSCG-NH2; thioether N-14), the pIC50 was 6.64.
In the case of `CC(C)C[C@@H]1NC(=O)[C@H](Cc2c[nH]c3ccccc23)NC(=O)[C@H](CC(=O)O)NC(=O)[C@H](Cc2ccc(O)cc2)NC(=O)[C@H](CC(N)=O)NC(=O)CSC[C@@H](C(=O)N[C@@H](C)C(N)=O)NC(=O)[C@H](CO)NC(=O)[C@H](C(C)C)NC(=O)[C@H](CC(C)C)NC(=O)[C@H](CC(N)=O)NC(=O)[C@H]2CCCN2C(=O)[C@H](C)N(C)C(=O)[C@H](C(C)C)NC(=O)[C@H](Cc2ccc(-c3ccccc3)cc2)NC1=O` [Example 1031] ({CH2CO}-NYDWL[Bip]V[NMeA][dP]NLVSCA-NH2; thioether N-14), the pIC50 was 7.22.
`CC(C)C[C@@H]1NC(=O)[C@H](CCCNC(=N)N)NC(=O)[C@H](Cc2ccccc2)N(C)C(=O)[C@H](C)N(C)C(=O)[C@H](CCCNC(=N)N)NC(=O)[C@H](Cc2ccc(-c3ccccc3)cc2)NC(=O)[C@H](C(C)C)NC(=O)[C@H](Cc2c[nH]c3ccccc23)NC(=O)[C@H](CC(=O)O)NC(=O)[C@H](Cc2ccc(O)cc2)NC(=O)[C@H](Cc2ccccc2)NC(=O)CSC[C@@H](C(=O)N[C@@H](C)C(N)=O)NC(=O)[C@H](CO)NC(=O)[C@H](C(C)C)NC1=O` [Example 1074] ({CH2CO}-FYDWV[Bip]R[NMeA][NMeF]RLVSCA-NH2; thioether N-14) showed a pIC50 of 6.72.
For `CC(C)C[C@@H]1NC(=O)[C@H](CCCN)NC(=O)[C@H](Cc2ccccc2)N(C)C(=O)[C@H](C)N(C)C(=O)[C@H](CCCNC(=N)N)NC(=O)[C@H](Cc2ccc(-c3ccccc3)cc2)NC(=O)[C@H](C(C)C)NC(=O)[C@H](Cc2c[nH]c3ccccc23)NC(=O)[C@H](CC(=O)O)NC(=O)[C@H](Cc2ccc(O)cc2)NC(=O)[C@H](Cc2ccccc2)NC(=O)CSC[C@@H](C(=O)N[C@@H](CO)C(N)=O)NC(=O)[C@H]([C@@H](C)O)NC(=O)[C@H](C(C)C)NC1=O` [Example 1357] ({CH2CO}-FYDWV[Bip]R[NMeA][NMeF][Orn]LVTCS-NH2; thioether N-14), the pIC50 was 6.68.
Work on `CC(C)C[C@@H]1NC(=O)[C@H](Cc2c[nH]c3ccccc23)NC(=O)[C@H](CC(=O)O)NC(=O)[C@H](Cc2ccc(O)cc2)NC(=O)[C@H](Cc2ccccc2)NC(=O)CSC[C@@H](C(=O)N[C@@H](C)C(N)=O)NC(=O)[C@H](CO)NC(=O)[C@H](C(C)C)NC(=O)[C@H](CC(C)C)NC(=O)[C@H](CC(N)=O)NC(=O)CN(C)C(=O)[C@@H](CCN)NC(=O)[C@H](C(C)C)NC(=O)[C@H](Cc2ccc(-c3ccccc3)cc2)NC1=O` [Example 1196] ({CH2CO}-FYDWL[Bip]V[dDab][Sar]NLVSCA-NH2; thioether N-14) yielded a pIC50 of 6.02.
`CC(C)C[C@@H]1NC(=O)[C@H](C)NC(=O)[C@H](Cc2ccccc2)N(C)C(=O)[C@H](C)N(C)C(=O)[C@H](CCCNC(=N)N)NC(=O)[C@H](Cc2ccc(-c3ccccc3)cc2)NC(=O)[C@H](C(C)C)NC(=O)[C@H](Cc2c[nH]c3ccccc23)NC(=O)[C@H](CC(=O)O)NC(=O)[C@H](Cc2ccc(O)cc2)NC(=O)[C@H](Cc2ccccc2)NC(=O)CSC[C@@H](C(=O)NCC(N)=O)NC(=O)[C@H](CO)NC(=O)[C@H](C(C)C)NC1=O` [Example 1209] ({CH2CO}-FYDWV[Bip]R[NMeA][NMeF]ALVSCG-NH2; thioether N-14) was tested, and the pIC50 was 6.11.
`CC(C)C[C@@H]1NC(=O)[C@H](Cc2c[nH]c3ccccc23)NC(=O)[C@H](CC(=O)O)NC(=O)[C@H](Cc2ccc(O)cc2)NC(=O)[C@H](Cc2ccccc2)NC(=O)CSC[C@@H](C(=O)N[C@@H](C)C(N)=O)NC(=O)[C@H](CO)NC(=O)[C@H](C(C)C)NC(=O)[C@H](CC2CCCC2)NC(=O)[C@H](CC(N)=O)NC(=O)CN(C)C(=O)[C@H](C)N(C)C(=O)[C@H](C(C)C)NC(=O)[C@H](Cc2ccc(-c3ccccc3)cc2)NC1=O` [Example 1102] ({CH2CO}-FYDWL[Bip]V[NMeA][Sar]N[Ala(cPent)]VSCA-NH2; thioether N-14) was tested, and the pIC50 was 6.51.
For `CC(C)C[C@@H]1NC(=O)[C@H](Cc2c[nH]c3ccccc23)NC(=O)[C@H](CC(=O)O)NC(=O)[C@H](Cc2ccc(O)cc2)NC(=O)[C@H](Cc2ccccc2)NC(=O)CSC[C@@H](C(=O)N[C@@H](C)C(N)=O)NC(=O)[C@H]([C@@H](C)O)NC(=O)[C@H](C(C)C)NC(=O)[C@H](CC(C)C)NC(=O)[C@H](CCN)NC(=O)[C@H]2CCCN2C(=O)[C@H](CN)NC(=O)[C@H](C(C)C)NC(=O)[C@H](Cc2ccc(-c3ccccc3)cc2)NC1=O` [Example 1409] ({CH2CO}-FYDWL[Bip]V[Dap][dP][Dab]LVTCA-NH2; thioether N-14), the pIC50 was 6.55.
With `CC(C)C[C@@H]1NC(=O)C(CCCNC(=N)N)NC(=O)[C@H](Cc2ccccc2)N(C)C(=O)[C@H](C)N(C)C(=O)[C@H](CCCNC(=N)N)NC(=O)[C@H](Cc2ccc(-c3ccccc3)cc2)NC(=O)[C@H](C(C)C)NC(=O)[C@H](Cc2c[nH]c3ccccc23)NC(=O)[C@H](CC(=O)O)NC(=O)[C@H](Cc2ccc(O)cc2)NC(=O)[C@H](Cc2ccccc2)NC(=O)CSC[C@@H](C(=O)NCC(N)=O)NC(=O)[C@H](CCCNC(=N)N)NC(=O)[C@H](C(C)C)NC1=O` (stereo partly shown) [Example 1220] ({CH2CO}-FYDWV[Bip]R[NMeA][NMeF][ξR]LVRCG-NH2; thioether N-14) the pIC50 was 6.14.
With `CC(C)C[C@@H]1NC(=O)[C@H](Cc2c[nH]c3ccccc23)NC(=O)[C@H](CC(=O)O)NC(=O)[C@H](Cc2ccc(OCC(=O)O)cc2)NC(=O)[C@H](Cc2ccc(OCC(=O)O)cc2)NC(=O)CSC[C@@H](C(=O)N[C@@H](C)C(N)=O)NC(=O)[C@H](CO)NC(=O)[C@H](C(C)C)NC(=O)[C@H](CC(C)C)NC(=O)[C@H](CC(N)=O)NC(=O)[C@H]2CCCN2C(=O)[C@H](C)N(C)C(=O)[C@H](C(C)C)NC(=O)[C@H](Cc2ccc(-c3ccccc3)cc2)NC1=O` [Example 1432] ({CH2CO}-Y(Carboxymethyl)Y(Carboxymethyl)DWL[Bip]V[NMeA][dP]NLVSCA-NH2; thioether N-14) the pIC50 was 7.10.
`CC(C)C[C@@H]1NC(=O)[C@H](Cc2c[nH]c3ccccc23)NC(=O)[C@H](CC(=O)O)NC(=O)[C@H](Cc2ccc(O)cc2)NC(=O)[C@H](Cc2cnc[nH]2)NC(=O)CSC[C@@H](C(=O)NCC(N)=O)NC(=O)[C@H](CO)NC(=O)[C@H](C(C)C)NC(=O)[C@H](CC(C)C)NC(=O)[C@H](CC(N)=O)NC(=O)CN(C)C(=O)[C@H](C)N(C)C(=O)[C@H](C(C)C)NC(=O)[C@H](Cc2ccc(-c3ccccc3)cc2)NC1=O` [Example 1150] ({CH2CO}-HYDWL[Bip]V[NMeA][Sar]NLVSCG-NH2; thioether N-14) showed a pIC50 of 6.16.
Molecule `CC(C)C[C@@H]1NC(=O)[C@H](Cc2c[nH]c3ccccc23)NC(=O)[C@H](CC(=O)O)NC(=O)[C@H](Cc2ccc(O)cc2)NC(=O)[C@H](Cc2ccccc2)NC(=O)CSC[C@@H](C(=O)NCC(N)=O)NC(=O)[C@H](CO)NC(=O)[C@H](C(C)C)NC(=O)[C@H](CC(C)C)NC(=O)[C@H](CC(N)=O)NC(=O)[C@H](Cc2ccccc2)N(C)C(=O)[C@H](C)N(C)C(=O)[C@H](C(C)C)NC(=O)[C@H](Cc2ccc(-c3ccccc3)cc2)NC1=O` [Example 1205] ({CH2CO}-FYDWL[Bip]V[NMeA][NMeF]NLVSCG-NH2; thioether N-14) has a pIC50 of 6.36.
`CC(C)C[C@@H]1NC(=O)[C@H](Cc2c[nH]c3ccccc23)NC(=O)[C@H](CC(=O)O)NC(=O)[C@H](Cc2ccc(O)cc2)NC(=O)[C@H](Cc2ccccc2)NC(=O)CSC[C@@H](C(=O)NCC(N)=O)NC(=O)[C@H](CO)NC(=O)[C@H](C(C)C)NC(=O)[C@H](CC(C)C)NC(=O)[C@H](CCN)NC(=O)[C@H]2CCCN2C(=O)[C@H](CCCN)NC(=O)[C@H](C(C)C)NC(=O)[C@H](Cc2ccc(-c3ccccc3)cc2)NC1=O` [Example 1423] ({CH2CO}-FYDWL[Bip]V[Orn][dP][Dab]LVSCG-NH2; thioether N-14) gave a pIC50 of 7.00.
Molecule `CC(C)C[C@@H]1NC(=O)[C@H](Cc2cccc3ccccc23)NC(=O)[C@H](CC(=O)O)NC(=O)[C@H](Cc2ccc(O)cc2)NC(=O)[C@H](Cc2ccccc2)NC(=O)CSC[C@@H](C(=O)N[C@@H](C)C(N)=O)NC(=O)[C@H](CO)NC(=O)[C@H](C(C)C)NC(=O)[C@H](CC(C)C)NC(=O)[C@H](CC(N)=O)NC(=O)CN(C)C(=O)[C@H](C)N(C)C(=O)[C@H](C(C)C)NC(=O)[C@H](Cc2ccc(-c3ccccc3)cc2)NC1=O` [Example 1116] ({CH2CO}-FYD[1Nal]L[Bip]V[NMeA][Sar]NLVSCA-NH2; thioether N-14) has a pIC50 of 6.40.
Molecule `CC(C)C[C@@H]1NC(=O)[C@H](CCCNC(=N)N)NC(=O)C2CCCN2C(=O)[C@H](C)N(C)C(=O)[C@H](CCCNC(=N)N)NC(=O)[C@H](Cc2ccc(-c3ccccc3)cc2)NC(=O)[C@H](C(C)C)NC(=O)[C@H](Cc2c[nH]c3ccccc23)NC(=O)[C@H](CC(=O)O)NC(=O)[C@H](Cc2ccc(O)cc2)NC(=O)[C@H](Cc2ccccc2)NC(=O)CSC[C@@H](C(=O)NCC(N)=O)NC(=O)[C@H](CO)NC(=O)[C@H](C(C)C)NC1=O` (stereo partly shown) [Example 1282] ({CH2CO}-FYDWV[Bip]R[NMeA][ξP]RLVSCG-NH2; thioether N-14) has a pIC50 of 6.54.
